One data set concerns Novozyme 188. The data set can be described thus: Enzymatic reaction rate of commercialized enzyme Novozyme 188 for substrates (comparison). The format is biochemical. Particulars: pH 6, 40° C. (as for Bgl1B). The method, then: (§1) To confirm the enzymatic reaction rate of the Bgl1B protein for various substrates, the Bgl1B protein was allowed to react with each substrate at various concentrations of 0.1-0.4% (w/v) at pH 6 and 40° C. Vmax, Km, and kcat, which are parameters related to an enzymatic reaction rate, were determined from the Lineweaver-Burk plot.

Data set [1] deals with T1, Saccharophagus degradans 2-40^T β-glucosidase Bgl1B, recombinant (6 histidine residues at C-terminus), SEQ ID NO: 1 (nucleotide SEQ ID NO: 2) (Saccharophagus degradans, UniProt Q21KX3).
T1 sequence (Q21KX3 1-444): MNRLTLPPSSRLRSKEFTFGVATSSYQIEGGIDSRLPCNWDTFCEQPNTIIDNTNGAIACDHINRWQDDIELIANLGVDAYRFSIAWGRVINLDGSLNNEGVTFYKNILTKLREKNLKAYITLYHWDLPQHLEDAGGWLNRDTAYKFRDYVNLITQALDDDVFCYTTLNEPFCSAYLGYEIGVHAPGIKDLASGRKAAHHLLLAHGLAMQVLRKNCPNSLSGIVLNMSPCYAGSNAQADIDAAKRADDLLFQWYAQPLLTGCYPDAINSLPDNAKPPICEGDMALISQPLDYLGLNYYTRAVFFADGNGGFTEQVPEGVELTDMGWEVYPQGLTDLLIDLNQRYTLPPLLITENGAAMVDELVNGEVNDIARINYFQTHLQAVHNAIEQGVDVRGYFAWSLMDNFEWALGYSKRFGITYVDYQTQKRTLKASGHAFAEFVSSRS
The data set can be described thus: Enzymatic reaction rate of Bgl1B for various substrates (Lineweaver-Burk plot). The format is biochemical. The settings on record: for Vmax / kcat: pH 6, 40° C., substrate 0.1-0.4% (w/v). The method, then:
To obtain the genomic DNA of Saccharophagus degradans 2-40^T (ATCC43961), Saccharophagus degradans 2-40^T was cultured in a minimal medium containing 2.3 g of instant ocean sea salt, 20 mM Tris-HCl, 2 g of glucose, 1 g of yeast extract, and 0.5 g of ammonium chloride per 1 L at 30° C. for 12 hours. The genomic DNA was extracted using a commercial DNA isolation kit (Qiagen, Valencia, Calif., USA). The target gene bgl1B was amplified from the genomic DNA by PCR. […] To purify the protein by affinity chromatography, the nucleotide sequence of a gene encoding 6 histidine residues at the C-terminus was added. The PCR product and a pET21α vector were digested with NdeI and NotI, respectively, and ligated to construct a pET21α-Bgl1B plasmid. The plasmid was transformed into Escherichia coli DH5α.
To overexpress the obtained gene, the gene was transformed into a protein-expressing host, Escherichia coli B121 (DE3). The cells were cultured in a Luria-Bertani (LB) broth containing 50 mg/L of ampicillin at 37° C. until absorbance at 600 nm reached 0.6. To induce protein expression, 0.1 mM IPTG was added and the induction temperature was set at 16° C., and a protein was allowed to be overexpressed in a water-soluble form for 16 hours. After culture, centrifugation was performed to recover the cells, the cells were released using a 20 mM Tris-HCl buffer (pH 7.4), and then disrupted by ultrasonication and centrifuged again to obtain a supernatant. The recombinant protein was purified using a HisTrap column (GE Healthcare, Piscataway, USA). The purified protein was concentrated using an Amicon Ultra Centrifugal filter (30,000 molecular weight cut-off; Millipore, Billerica, Mass., USA), and the concentration of the protein was measured using a bicinchoninic acid (BCA) protein assay kit (Thermo Fisher Scientific, San Hose, Calif., USA).
as §1

The next data set relates to Bgl1B protein. The data set can be described thus: Effect of metal ions on the activity of the Bgl1B protein. It counts as biochemical, Saccharophagus degradans 2-40^T. The settings on record: for influence on enzymatic activity / Relative enzymatic activity (%): 10 mM metal ion, 0.1% (w/v) cellobiose; for Relative enzymatic activity (%): relative to no metal ion.
Substrate in data set [2]: OC[C@H]1O[C@@H](OC[C@H]2OC(O)[C@H](O)[C@@H](O)[C@@H]2O)[C@H](O)[C@@H](O)[C@@H]1O
The data set can be described thus: purified protein, by the assay type. Particulars: other: pH 6, 40° C., substrate 0.1-0.4% (w/v).

Substrate in data set [3]: OC[C@H]1O[C@@H](O[C@H]2[C@H](O)[C@@H](O)C(O)O[C@@H]2CO)[C@H](O)[C@@H](O)[C@H]1O
The data set can be described thus: purified protein, by the assay type. Particulars: other: pH 6, 40° C., substrate 0.1-0.4% (w/v).

Substrate in data set [4]: OC[C@H]1O[C@@H](O[C@H]2[C@H](O)[C@@H](O)C(O)O[C@@H]2CO)[C@H](O)[C@@H](O)[C@@H]1O
The data set can be described thus: purified protein, by the assay type. Particulars: other: pH 6, 40° C., substrate 0.1-0.4% (w/v).

Substrate in data set [5]: OC[C@H]1O[C@@H](O[C@H]2[C@H]3OC[C@@H]2OC(O)[C@H]3O)[C@H](O)[C@@H](O)[C@H]1O
The data set can be described thus: purified protein, by the assay type. Particulars: other: pH 6, 40° C., substrate 0.1-0.4% (w/v).

Substrate in data set [6]: OC[C@H]1O[C@@H](O[C@H]2[C@H](O)[C@@H](CO)OC(O)[C@@H]2O)[C@H](O)[C@@H](O)[C@@H]1O
The data set can be described thus: purified protein, by the assay type. Particulars: other: pH 6, 40° C., substrate 0.1-0.4% (w/v).

Entries after “also recorded” stand apart in the source; their conditions may differ.

Take `OC[C@H]1O[C@@H](O[C@H]2[C@H](O)[C@@H](CO)OC(O)[C@@H]2O)[C@H](O)[C@@H](O)[C@@H]1O` (some centres unmarked) [Laminaribiose, laminaribiose]: in the data set with Novozyme 188, the Michaelis-Menten constant (Km) (commonly the substrate concentration at which the rate is half of its maximum) worked out at 2.5 mM; the Vmax is 4.2 × 10^−1 U/mg protein; the turnover number (kcat) (as a rule, the number of substrate molecules converted per active site and unit of time at saturation) is 0.85 s⁻¹. Further, in data set [1] (Bgl1B compared to Novozyme 188), the “Vmax, fold greater than Novozyme 188” value is 259 fold; the “catalytic efficiency, fold greater than Novozyme 188” value was found to be 108 fold; the “kcat, fold greater than Novozyme 188” value was 108 fold. In data set [1], the Vmax is listed as 1.1 × 10^2 U/mg protein and the kcat was found to be 91 s⁻¹.
`OC[C@H]1O[C@@H](O[C@H]2[C@H]3OC[C@@H]2OC(O)[C@H]3O)[C@H](O)[C@@H](O)[C@H]1O` (some centres unmarked) [Agarobiose, agarobiose]: in data set [1], the Vmax is 3.1 × 10^−1 U/mg protein and the kcat is 0.26 s⁻¹.
Turning to `[Ni+2]` [Ni^2+], in the data set on Bgl1B protein, the “influence on enzymatic activity” value is on record as “does not have a great influence; also recorded: did not have a great influence” and the “Relative enzymatic activity (%)” value was 90.3 ± 2.7%.
In the case of `[Ca+2]` [Ca^2+], in the data set with Bgl1B protein, the “Relative enzymatic activity (%)” value was determined as 82.0 ± 1.5%.
As to `[Mn+2]` [Mn^2+], in the data set on Bgl1B protein, the “Relative enzymatic activity (%)” value is reported as 52.6 ± 2.1%. Further, in the data set on Bgl1B protein (metal ion, summary statement), the “inhibits enzymatic activity by” value was “about 50%”.
On to `[Mg+2]` [Mg^2+], for which, in the data set on Bgl1B protein, the “influence on enzymatic activity” value was “does not have a great influence; also recorded: did not have a great influence” and the “Relative enzymatic activity (%)” value is 98.9 ± 2.3%.
`[Fe+2]` [Fe^2+]: the “Relative enzymatic activity (%)” value in the data set with Bgl1B protein came to 8.2 ± 0.3%.
Regarding `OC[C@H]1O[C@@H](O[C@H]2[C@H](O)[C@@H](O)C(O)O[C@@H]2CO)[C@H](O)[C@@H](O)[C@@H]1O` (some centres unmarked) [Cellobiose, cellobiose], in the data set with Novozyme 188, the Michaelis constant (Km) turned out to be 3.4 mM, the Vmax is on record as 3.9 × 10^0 U/mg protein and the kcat is on record as 7.8 × 10^0 s^−1. Further, in data set [1], the Vmax is on record as 1.6 × 10^1 U/mg protein and the kcat stood at 13 s⁻¹.
As to `OC[C@H]1O[C@@H](OC[C@H]2OC(O)[C@H](O)[C@@H](O)[C@@H]2O)[C@H](O)[C@@H](O)[C@@H]1O` (some centres unmarked) [Gentiobiose, gentiobiose], in data set [1], the Vmax was 1.1 × 10^0 U/mg protein and the kcat stood at 0.88 s⁻¹.
In the case of `[Co+2]` [Co^2+], in the data set with Bgl1B protein, the “influence on enzymatic activity” value is “does not have a great influence; also recorded: did not have a great influence” and the “Relative enzymatic activity (%)” value is 95.7 ± 1.6%.
As to `OC[C@H]1O[C@@H](O[C@H]2[C@H](O)[C@@H](O)C(O)O[C@@H]2CO)[C@H](O)[C@@H](O)[C@H]1O` (some centres unmarked) [Lactose, lactose], in data set [1], the Vmax is on record as 1.0 × 10^0 U/mg protein and the kcat amounted to 0.83 s⁻¹.
As for `[Cu+2]` [Cu^2+], in the data set on Bgl1B protein, the “Relative enzymatic activity (%)” value came out at 0.0 ± 0.0%.

B1: Saccharophagus degradans 2-40^T β-glucosidase Bgl1B, recombinant (6 histidine residues at C-terminus), SEQ ID NO: 1 (nucleotide SEQ ID NO: 2) (Saccharophagus … (protein)
chain: T1 sequence (Q21KX3 1-444)
For the molecule B1, the Km in data set [2] worked out at 13 mM; in data set [3] it was 20 mM; in data set [4], 20 mM; in data set [5], 69 mM; in data set [6] it was 0.99 mM.

The values above are taken from US11248246B2, “Beta-glucosidase for producing glucose and laminarioligosaccharide from sea weed” (Korea University Research and Business Foundation, priority 2018, dated 2022).
